Data from the supplement of paper PMC11061612.

How the values were obtained:
[1] = test system: B-CPAP (Thyroid Gland Carcinoma); assay: Bliss excess, mean over the matrix (fraction); higher = more synergy
Summary of the method: (§1)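 After 24 hours at 37°C and 5% CO2 in 1536-well plates, cells in DMEM/F12 or RPMI plus 10% FBS received two-drug dose matrices for 72 hours. Viability came from CellTiter-Glo 2.0 luminescence and was scaled as inhibition, anchored at 0 by vehicle wells and at 1 by blank wells. Combination Emax is taken as the second-highest inhibition in the matrix, and Bliss excess as the observed combination effect less EA + EB − EA·EB, with EA and EB the single-agent effects.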

NOS-1 (Osteosarcoma) [2] = assay: as above
Summary of the method: as §1

[3] = test system: Daoy (Other Solid Carcinomas); assay: as above
Summary of the method: as §1

[4] = test system: HuP-T4 (Pancreatic Carcinoma); assay: as above
Summary of the method: as §1

[5] = test system: Calu-3 (Lung Adenocarcinoma); assay: as above
Summary of the method: as §1

KELLY (Neuroblastoma) [6] = assay: as above
Summary of the method: as §1

[7] = test system: MFE-296 (Endometrial Carcinoma); assay: combination Emax (second highest fraction inhibited in the dose matrix, 72 h); higher = more inhibition; extreme values may be limits of the assay
Summary of the method: as §1

[8] = test system: SK-ES-1 (Ewing's Sarcoma); assay: as above
Summary of the method: as §1

[9] = test system: HCC1806 (Breast Carcinoma); assay: as above
Summary of the method: as §1

HOS (Osteosarcoma) = assay: as above
Summary of the method: as §1

[10] = test system: DoTc2-4510 (Cervical Carcinoma); assay: as above
Summary of the method: as §1

NOS-1 (Osteosarcoma) [11] = assay: as above
Summary of the method: as §1

[12] = test system: KYSE-520 (Esophageal Squamous Cell Carcinoma); assay: as above
Summary of the method: as §1

[13] = test system: HCC-78 (Lung Adenocarcinoma); assay: as above
Summary of the method: as §1

[14] = test system: TE-9 (Esophageal Squamous Cell Carcinoma); assay: as above
Summary of the method: as §1

[15] = test system: Calu-3 (Lung Adenocarcinoma); assay: as above
Summary of the method: as §1

KELLY (Neuroblastoma) [16] = assay: as above
Summary of the method: as §1

[17] = test system: LB831-BLC (Bladder Carcinoma); assay: as above
Summary of the method: as §1

[18] = test system: MDA-MB-361 (Breast Carcinoma); assay: as above
Summary of the method: as §1

[19] = test system: ME-1 (Acute Myeloid Leukemia); assay: as above
Summary of the method: as §1
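Throughout, for Bliss excess, mean over the matrix: after 72 h of two-drug dosing.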

Compound	Bliss excess [1]	Bliss excess (NOS-1 (Osteosarcoma) [2])	Bliss excess [3]	Bliss excess [4]	Bliss excess [5]	Bliss excess (KELLY (Neuroblastoma) [6])	combination Emax [7]	combination Emax [8]	combination Emax [9]	combination Emax (HOS (Osteosarcoma))	combination Emax [10]	combination Emax (NOS-1 (Osteosarcoma) [11])	combination Emax [12]	combination Emax [13]	combination Emax [14]	combination Emax [15]	combination Emax (KELLY (Neuroblastoma) [16])	combination Emax [17]	combination Emax [18]	combination Emax [19]
CS(=O)(=O)CCNCc1ccc(-c2ccc3ncnc(Nc4ccc(OCc5cccc(F)c5)c(Cl)c4)c3c2)o1 [Lapatinib] + C[C@@H](Oc1cc(-c2cnn(C3CCNCC3)c2)cnc1N)c1c(Cl)ccc(F)c1Cl [Crizotinib] (first compound max 10 µM, 7x7, partner max 10 µM)	-0.0393	-0.0114	-0.0297	0.0261	0.0052	-0.03	0.224	0.938	0.95	0.408	0.942	0.985	0.945	0.882	0.552	0.931	0.97	0.826	0.859	0.194
CC(=O)c1c(C)c2cnc(Nc3ccc(N4CCNCC4)cn3)nc2n(C2CCCC2)c1=O [Palbociclib] + CC1(C)CCC(CN2CCN(c3ccc(C(=O)NS(=O)(=O)c4ccc(NCC5CCOCC5)c([N+](=O)[O-])c4)c(Oc4cnc5[nH]ccc5c4)c3)CC2)=C(c2ccc(Cl)cc2)C1 [Venetoclax] (first compound max 10 µM, 7x7, partner max 1 µM)	0.0002	0.0157	0.005	-0.0281	-0.0252	0.0358	0.203	0.749	0.268	0.258	0.0297	0.693	0.114	0.144	0.114	0.0931	0.52	0.108	0.163	1
CC(=O)c1c(C)c2cnc(Nc3ccc(N4CCNCC4)cn3)nc2n(C2CCCC2)c1=O [Palbociclib] + Cc1c2c(nn1C)CSCc1cc(n(C)n1)CSc1cc(c3ccccc3c1)OCCCc1c(C(=O)O)n(C)c3c-2c(Cl)ccc13 [AZD5991] (first compound max 10 µM, 7x7, partner max 1 µM)	-0.0722	-0.0006	-0.0112	-0.0184	-0.0039	0.0123	0.287	0.851	0.383	0.404	0.215	0.925	0.462	0.251	0.14	0.219	0.897	0.275	0.586	0.693
CC(=O)c1c(C)c2cnc(Nc3ccc(N4CCNCC4)cn3)nc2n(C2CCCC2)c1=O [Palbociclib] + Cn1cnc2c(F)c(Nc3ccc(Br)cc3Cl)c(C(=O)NOCCO)cc21 [Selumetinib] (first compound max 10 µM, 7x7, partner max 10 µM)	0.0321	-0.0152	-0.0082	0.0396	-0.0095	0.09	0.105	0.622	0.414	0.362	0.117	0.826	0.457	0.168	0.201	0.149	0.626	0.223	0.154	0.428
COc1cccc(OCCCN)c1-c1cc(Nc2cnc(C#N)cn2)n[nH]1 [Prexasertib] + C=CCn1c(=O)c2cnc(Nc3ccc(N4CCN(C)CC4)cc3)nc2n1-c1cccc(C(C)(C)O)n1 [AZD1775] (first compound max 1 µM, partner max 1 µM)	0.154	0.0924	0.0573	0.0747	0.0255	0.0252	0.644	1	0.983	0.97	0.906	0.432	0.735	0.793	0.86	0.482	1	0.836	0.926	0.599
COc1cccc(OCCCN)c1-c1cc(Nc2cnc(C#N)cn2)n[nH]1 [Prexasertib] + CCc1c2c(nc3ccc(O)cc13)-c1cc3c(c(=O)n1C2)COC(=O)[C@]3(O)CC [SN-38] (first compound max 1 µM, 7x7, partner max 0.3 µM)	0.0695	0.0864	0.0128	-0.0424	-0.0003	-0.0098	0.83	1	0.996	0.994	0.964	0.524	0.856	0.947	0.8	0.549	1	0.921	0.913	0.627
COc1cccc(OCCCN)c1-c1cc(Nc2cnc(C#N)cn2)n[nH]1 [Prexasertib] + CN(C)CCCOc1ccc(-c2ccc3ncc4c(c3c2)n(C2CCOCC2)c(=O)n4C)cn1 [AZD0156] (first compound max 1 µM, 7x7, partner max 1 µM)	-0.0156	0.0551	0.0208	-0.0273	-0.0668	0.0113	0.583	0.948	0.967	0.854	0.89	0.332	0.725	0.685	0.596	0.409	1	0.413	0.954	0.622
COc1cccc(OCCCN)c1-c1cc(Nc2cnc(C#N)cn2)n[nH]1 [Prexasertib] + C[C@@H]1COCCN1C2=NC(=NC(=C2)C3(CC3)[S@](=N)(=O)C)C4=C5C=CNC5=NC=C4 [AZD6738] (first compound max 1 µM, 7x7, partner max 10 µM)	-0.0345	0.0721	0.0032	-0.0504	-0.0108	0.0187	0.554	0.944	0.988	0.902	0.88	0.381	0.728	0.744	0.481	0.405	1	0.363	0.922	0.633
COc1cccc(OCCCN)c1-c1cc(Nc2cnc(C#N)cn2)n[nH]1 [Prexasertib] + Cc1cc2ncnn2cc1Nc1ncc2c(n1)n(C1CCOCC1)c(=O)n2C [AZD7648] (first compound max 1 µM, 7x7, partner max 10 µM)	0.0049	0.0514	-0.009	0.0127	0.0049	-0.0027	0.569	0.964	0.978	0.826	0.86	0.321	0.728	0.736	0.516	0.416	1	0.314	0.929	0.622
COc1cccc(OCCCN)c1-c1cc(Nc2cnc(C#N)cn2)n[nH]1 [Prexasertib] + O=C(c1cc(Cc2n[nH]c(=O)c3ccccc23)ccc1F)N1CCN(C(=O)C2CC2)CC1 [Olaparib] (first compound max 1 µM, 7x7, partner max 10 µM)	-0.007	0.0177	0.0261	-0.0834	-0.0558	-0.0742	0.525	1	0.999	0.854	0.875	0.373	0.548	0.718	0.567	0.381	0.98	0.448	0.919	0.61
COc1cc2c(cc1OCCCCCOc1cc3c(cc1OC)C(=O)N1C=C(C)C[C@H]1C=N3)N=C[C@@H]1CC(C)=CN1C2=O [SG3199] + O=C(c1cc(Cc2n[nH]c(=O)c3ccccc23)ccc1F)N1CCN(C(=O)C2CC2)CC1 [Olaparib] (first compound max 0.001 µM, 7x7, partner max 10 µM)	0.0434	-0.0275	-0.0171	-0.0256	-0.0266	0.0142	0.0449	0.917	0.212	0.105	0.321	0.155	0.133	0.101	0.0964	0.0759	0.375	0.159	0.0847	0.163
CCc1c2c(nc3ccc(O)cc13)-c1cc3c(c(=O)n1C2)COC(=O)[C@]3(O)CC [SN-38] + CN(C)CCCOc1ccc(-c2ccc3ncc4c(c3c2)n(C2CCOCC2)c(=O)n4C)cn1 [AZD0156] (first compound max 0.3 µM, 7x7, partner max 1 µM)	0.0105	-0.0111	0.0666	0.0028	0.0092	0.0155	0.496	1	0.91	0.893	0.972	0.0879	0.284	0.924	0.395	0.319	0.869	0.723	0.397	0.571
C[C@@H](c1ccc2nccn2c1)n1nnc2ncc(-c3cnn(C)c3)nc21 [Savolitinib] + CC1(C)CCC(CN2CCN(c3ccc(C(=O)NS(=O)(=O)c4ccc(NCC5CCOCC5)c([N+](=O)[O-])c4)c(Oc4cnc5[nH]ccc5c4)c3)CC2)=C(c2ccc(Cl)cc2)C1 [Venetoclax] (first compound max 1 µM, 7x7, partner max 1 µM)	-0.0453	-0.05	-0.0185	-0.0575	-0.0347	-0.0038	0.0764	0.197	0.142	0.205	0.182	0.0631	0.149	0.145	0.152	0.153	0.357	0.179	0.119	1
